Measured values published in patent EP3381907A1, “SYMMETRICAL 2-AMINOPHENYL-BENZAZOLYL-5-ACETATE COMPOUNDS AND THEIR USE AS ANTI-HEPARANASE” (Leadiant Biosciences SA, priority 2017, dated 2018).

What was measured:
heparanase = target: T1, heparanase (Homo sapiens, UniProt Q9Y251); experiment: AGA*IA assay: colorimetric fondaparinux cleavage assay for heparanase inhibition (WST-1); format: biochemical; conditions: 2.5 nM heparanase, 100 µM fondaparinux, pH 5.0, 3 h at 37°C; class symbols
T1 sequence (Q9Y251 158-543 limits assumed): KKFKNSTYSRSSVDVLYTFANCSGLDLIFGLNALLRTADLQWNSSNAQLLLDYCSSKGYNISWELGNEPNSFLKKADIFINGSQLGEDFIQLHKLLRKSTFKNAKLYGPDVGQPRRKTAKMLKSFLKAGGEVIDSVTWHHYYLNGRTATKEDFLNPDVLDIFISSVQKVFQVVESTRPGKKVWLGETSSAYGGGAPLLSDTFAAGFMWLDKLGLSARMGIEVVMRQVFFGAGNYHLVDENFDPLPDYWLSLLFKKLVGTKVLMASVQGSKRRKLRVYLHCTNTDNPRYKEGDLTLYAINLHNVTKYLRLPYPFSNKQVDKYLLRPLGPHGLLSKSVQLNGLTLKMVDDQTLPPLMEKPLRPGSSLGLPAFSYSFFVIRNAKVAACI
T1 sequence (Q9Y251 36-109 limits assumed): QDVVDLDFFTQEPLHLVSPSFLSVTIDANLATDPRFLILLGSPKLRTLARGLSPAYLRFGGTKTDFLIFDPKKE
Procedure: All compounds were tested in a simple, accurate and robust microplate assay based on the cleavage of the synthetic heparin fragment, the pentasaccharide Fondaparinux (AGA*IA). This assay was originally developed by Hammond and coworkers [Hammond E, Li CP, Ferro V. Development of a colorimetric assay for heparanase activity suitable for kinetic analysis and inhibitor screening. Anal. Biochem. 396(1), 112-116 (2010)], where Fondaparinux corresponds to the methyl glycoside of the antithrombin III (ATIII)-activating pentasaccharide sequence of heparin. Fondaparinux is cleaved by heparanase to generate a reducing disaccharide, which can be quantitatively measured via a colorimetric or a fluorescence assay, the last by the fluorescent sensor polymer-H [Schiemann S, Lühn S, Alban S. Development of both colorimetric and fluorescence heparinase activity assays using fondaparinux as substrate. Anal. Biochem. 427(1), 82-89 (2012)].
The assay measures the appearance of the disaccharide product of heparanase-catalyzed fondaparinux cleavage colorimetrically using the tetrazolium salt WST-1. Assay was essentially performed as described with minor modifications. Briefly, NUNC ELISA 96-well plates were pre-treated with a solution of 4% BSA (bovin serum albumin) in phosphate-buffered saline containing 0.05% Tween 20 (PBST), for 2 h at 37°C, then washed three times with PBST, dried by tapping on paper towel and stored at -20°C. Before use, once again, the plates were washed with PBST.
Assay was carried out with 100 µl/well of assay solution containing 40 mM sodium acetate buffer (pH 5.0), 100 µM fondaparinux, 2.5 nM heparanase and serial dilutions of test compounds (tested in triplicate). Plates were sealed with adhesive tape and incubated, in the dark, for 3 h at 37°C, followed by development with 1.69 mM of the tetrazolium salt WST-1 solution in 0.1 M NaOH, for 1 h at 60°C. Then, the absorbance at 560 nm was measured through a microplate reader (Victor 3, Perkin Elmer).
Finally, the measurements were corrected by subtracting both the reagent background and the inner absorbance value of test compound.

[1] = test system: U87MG (human glioblastoma astrocytoma); experiment: Cell adhesion assay on matrigel coated wells, U87MG; format: cell-based; conditions: percent of adhesion with respect to the control (100%)
Procedure: (§1) Cell surface, non-integrin molecules such as heparan sulfate proteoglycans (HSPGs) may be involved in the regulation of early adhesive stages of cell-ECM interactions. A cell adhesion assay has been employed to determine if the newly designed heparanase inhibitors were able to interfere with adhesion properties of cancer cells.
(§2) HT1080 (human fibrosarcoma) and U87MG (human glioblastoma astrocytoma) cells were treated for 18-20 h with test compounds in complete medium supplemented with 10% FCS. Then cells were collected, washed in complete medium, and added to matrigel coated wells in triplicate, at previously identified optimal seeding density, and incubated at 37 °C in complete medium for times ranging from 15 minutes to 4h, according to the cell line. After incubation, the wells were washed three times with serum-free medium and the remaining firmly attached cells were stained with crystal-violet 0.1%. Optical density was measured at 560 nm by Victor 3 (Perkin-Elmer) plate analyzer. Each experiment was repeated three times.
(§3) Table 3. […] In Invasion assay, data were expressed as the percent invasion (range) with respect to cell migration through uncoated insert membrane. In Adhesion assay, data were expressed as the percent of adhesion with respect to the control (100%). • Legend • ++: 50-90% • + : < 50% • - : Not Active

[2] = test system: HT1080 (human fibrosarcoma); experiment: SRB Cell Cytotoxicity Assay, HT1080; format: cell-based; conditions: HT-1080, HT1080, 72h treatment, read-out: Concentration (µM) of test compounds at which the cell growth is inhibited by 50 %. HT1080
Excerpt: (§4) SRB Cell Cytotoxicity Assay is an assay based upon the quantitative staining of cellular proteins by sulforhodamine B (SRB). This assay can be used for high-throughput drug screening (Vichai & Kirkitara, Nature Protocol. 2006, 1, 112). Sulforhodamine B is an anionic aminoxanthene dye that forms an electrostatic complex with the basic amino acid residues of proteins under moderately acid conditions, which provides a sensitive linear response.
(§5) To assess a putative antiproliferative activity of the selected compounds, HT1080 (human fibrosarcoma), U87MG (human glioblastoma astrocytoma) and U2OS (human osteosarcoma) cell lines were treated for 72h, in triplicate, with increasing concentrations of heparanase inhibitors. Inhibition of cell proliferation was then measured by the classical colorimetric SRB Cell Cytotoxicity assay. Absorbance was measured by spectrophotometer at a wavelength of 510 nm and cell proliferation was determined as percent with respect to control cells (cells treated with the vehicle alone). EC50 values were then determined by GraphPad Prism.

[3] = test system: U2OS (human osteosarcoma); experiment: SRB Cell Cytotoxicity Assay, U2OS; format: cell-based; conditions: 72h treatment, read-out: Concentration (µM) of test compounds at which the cell growth is inhibited by 50 %. U2OS
Excerpt: as §4, §5

[4] = test system: HT1080 (human fibrosarcoma); experiment: Cell adhesion assay on matrigel coated wells, HT1080; format: cell-based; conditions: percent of adhesion with respect to the control (100%)
Procedure: as §1, §2, §3

[5] = test system: HT1080 (human fibrosarcoma); experiment: Matrigel cell invasion assay, HT1080; format: cell-based
Procedure: (§6) Heparanase inhibitors were then evaluated for their activity on the invasive potential of HT1080 (human fibrosarcoma), U87MG (human glioblastoma astrocytoma) and U2OS (human osteosarcoma) human cell lines, using the Matrigel cell invasion assay which allows to assess the cell invasion ability of malignant and normal cells.
(§7) Invasion assay was performed using BioCoat cell culture inserts (BioCoat 8.0µm PET Membrane 24 Well Permeable Supports, Corning). Filters were coated with 100 µl of 300 µg/ml Matrigel dissolved in coating buffer (0.01 M Tris pH 8.0, 0.7% NaCl) (Becton-Dickinson Sciences). DMEM (Dulbecco's Modified Eagle's Medium) containing 5% FBS was added to the lower chambers. Cells were pre-treated with heparanase inhibitors for 24 h, detached and added to the upper chambers in media containing the inhibitors. Cells were allowed to invade for 24 h at 37°C in a CO2 incubator and then unmigrated cells were removed from the upper chamber with a cotton swab. The invading cells were fixed, stained with 0.1% crystal violet for 10 min at room temperature, photographed and counted under inverted microscope.
(§8) Test compounds were analyzed at fixed concentration (2.5 µM) for several fields, in duplicates. Activity of test compounds was compared to the reference compound. Activity of most interesting compound was confirmed in a second cell invasion assay. Data were expressed as the percent invasion with respect to cell migration through uncoated insert membrane (see Table 3 below)
as §3

[6] = test system: U2OS (human osteosarcoma); experiment: Matrigel cell invasion assay, U2OS; format: cell-based; set-up: key to Invasion Assay Inhibition U2OS: ++: 50-90%; +: < 50%; -: Not Active
Procedure: as §6, §7, §8, §3

[7] = test system: U87MG (human glioblastoma astrocytoma); experiment: Matrigel cell invasion assay, U87MG; format: cell-based; set-up: key to Invasion Assay Inhibition U87MG: ++: 50-90%; +: < 50%; -: Not Active
Procedure: as §6, §7, §8, §3

[8] = test system: U87MG (human glioblastoma astrocytoma); experiment: SRB Cell Cytotoxicity Assay, U87MG; format: cell-based; conditions: U-87 MG, 72h treatment, read-out: Concentration (µM) of test compounds at which the cell growth is inhibited by 50 %. U87MG
Excerpt: as §4, §5

Row | SMILES | IC50 (heparanase) | Adhesion Assay (%) U87MG ([1]; test compound at 2.5 µM) | EC50 [2] | EC50 [3] | Adhesion Assay (%) HT1080 ([4]; HT1080, test compound at 2.5 µM) | inhibition at 2.5 µM ([5]; HT-1080, HT1080, test compound at 2.5 µM, 24 h pre-treatment, 24 h invasion) | inhibition at 2.5 µM ([6]; Homo sapiens, test compound at 2.5 µM, 24 h pre-treatment, 24 h invasion) | inhibition at 2.5 µM ([7]; Homo sapiens, U-87 MG, test compound at 2.5 µM, 24 h pre-treatment, 24 h invasion) | EC50 [8] | Adhesion Assay (%) U87MG ([1]; reference compound at 10 µM) | Adhesion Assay (%) HT1080 ([4]; HT1080, reference compound at 10 µM) | inhibition at 10 µM ([5]; HT-1080, HT1080, reference compound at 10 µM) | Invasion Assay Inhibition U2OS ([6]; reference compound at 10 µM) | Invasion Assay Inhibition U87MG ([7]; reference compound at 10 µM)
1 | C[C@H](NC(=O)Cc1ccc2oc(-c3ccc(NC(=O)Nc4ccc(-c5nc6cc(CC(=O)N[C@@H](C)C(=O)O)ccc6o5)cc4F)c(F)c3)nc2c1)C(=O)O [Compound 27, (2S,2'S)-2,2'-((2,2'-(((Carbonylbis(azanediyl))bis(3-fluoro-4,1-phenylene))bis(benzo[d]oxazole-2,5-diyl))bis(acetyl))bis(azanediyl))dipropionic acid] | 0.05 to 0.49 µM | 61.10% | > 10 µM | > 10 µM | 90.94% | < 50% | < 50% | 50 to 90% | > 10 µM |  |  |  |  | 
2 | Cc1ccc(C(=O)Nc2ccc(S(=O)(=O)O)c3cc(S(=O)(=O)O)cc(S(=O)(=O)O)c23)cc1NC(=O)c1cccc(NC(=O)Nc2cccc(C(=O)Nc3cc(C(=O)Nc4ccc(S(=O)(=O)O)c5cc(S(=O)(=O)O)cc(S(=O)(=O)O)c45)ccc3C)c2)c1 [Suramin, reference compound] |  |  | > 10 µM | > 10 µM |  |  |  |  | > 10 µM | 100% | 72.98% | < 50% | - | -
